Test results reported in PubChem BioAssay AID652252 (Sanford-Burnham Center for Chemical Genomics, 2013).
Activity calls are given as the source filed them. No rule for the calls is given here.

Each compound was assayed on HT1080 cells viability, ATPLite luminescence, overnight (assay: viability of HT1080 fibrosarcoma cells – cell-based, ATPLite luminescence, set 1, cytotoxicity control for MT1-MMP activation inhibitor project, dose response (AID 652252)).

| Structure (SMILES) | IC50 |
| --- | --- |
| CC1=NN(c2ccccc2)C(=O)/C1=C/C=C/C=C/N(C)C | 10.2 µM |
| CCCN1/C(=C2/SC(=S)N(CC)C2=O)C=Cc2ccccc21 | > 80 µM (inactive) |
| COc1ccc(Nc2ccccc2N)cc1 | 2.38 µM |
| O=C1c2ccccc2C(=O)c2c(O)c(O)cc(O)c21 | > 80 µM (inactive) |
| N#CC(C#N)=NNc1ccc([N+](=O)[O-])cc1 | > 80 µM (inactive) |
| CCCN1C(=O)/C(=C2/C=Cc3ccccc3N2CC)SC1=S | 64.9 µM (inactive) |
| Cc1c(C(=O)OCC(=O)NCC2CCCO2)oc2ccccc12 (configuration not stated) | > 40 µM (inactive) |
| Cc1cccc[n+]1CC(=O)/C=C1\N(C)c2ccccc2C1(C)C | 70.6 µM (inactive) |
| CCn1c(=O)c(=O)[nH]c2cc(C(=O)NC3CCCc4ccccc43)ccc21 (configuration not stated) | > 80 µM (inactive) |
| CCN(CC)c1ccc(/C=C2\C(=O)N(c3nnc(C)c(=O)[nH]3)N=C2C)cc1 | > 80 µM (inactive) |
| O=C(NNc1c2ccccc2nc2ccccc12)c1cc2ccccc2cc1O | > 80 µM (inactive) |
| CN1C(=O)/C(=C\c2cc(N=Nc3ccccc3)ccc2O)SC1=S | > 80 µM (inactive) |
| CC1CC(C)CN(C(=O)c2ccc3c(c2NCCO)C(=O)c2ccccc2C3=O)C1 (configuration not stated) | > 80 µM (inactive) |
| Nc1nc(-c2ccccc2)c(N=Nc2cccc3ccccc23)s1 | > 80 µM (inactive) |
| CNc1c(C(=O)O)ccc2c1C(=O)c1ccccc1C2=O | > 80 µM (inactive) |
| C[N+]1=C(/C=C/Nc2ccccc2)C(C)(C)c2ccccc21 | 16.9 µM |
| O=Nc1c(-c2c(O)[nH]c3cc(Br)ccc23)[nH]c2ccccc12 | 66.1 µM (inactive) |
| CCOC(=O)C1=C(C)N=c2s/c(=C\c3ccc(OC(C)=O)c(OCC)c3)c(=O)n2C1/C=C/c1ccccc1 (configuration not stated) | 3.54 µM |
| CNc1ccccc1C(C)(C)c1cc(-c2cccc(Br)c2)no1 | > 80 µM (inactive) |
| C/C(=C/c1oc2ccc(O)cc2c1[N+](=O)[O-])N(C)C | > 80 µM (inactive) |
| O=C(NNc1c2ccccc2nc2ccccc12)c1ccc(Cl)cc1 | > 40 µM (inactive) |
| CN1C(=O)/C(=C2/C=Cc3ccccc3N2CCCS(=O)(=O)O)SC1=S | > 80 µM (inactive) |
| COc1ccccc1C(=O)NC(=S)/C=C1/N(C)c2ccccc2C1(C)C | > 80 µM (inactive) |
| CC1(C)CCCN(C(=O)c2ccc3c(c2NCCO)C(=O)c2ccccc2C3=O)C1 | > 80 µM (inactive) |

| Structure (SMILES) | IC50 |
| --- | --- |
| CNc1ccccc1C(C)(C)c1cc(-c2cccc(OC)c2)no1 | > 80 µM (inactive) |
| COc1ccc(-c2oc3ccc(-c4ccc(OC)nc4)cc3c2C#CC2(O)CCCCC2)cc1 | > 80 µM (inactive) |
| COc1ccc(C)cc1Nc1nc(-c2c(C)[nH]c3ccccc23)cs1 | > 80 µM (inactive) |
| CN=C1C=C/C(=N/N=c2\ccn(O)cc2C)C=C1C | > 80 µM (inactive) |
| COc1ccc(C)cc1N=Nc1ccc(O)c2ncccc12 | > 80 µM (inactive) |
| Nc1nc(-c2ccc(Cl)cc2)c(N=Nc2ccc(S(=O)(=O)N3CCOCC3)cc2)s1 | 30.3 µM (inactive) |
| CCN(CC)c1ccc(C(=C2C=CC(=[N+](CC)CC)C=C2)c2ccc(N(CC)CC)cc2)cc1 | > 80 µM (inactive) |
| CC(=O)Oc1ccc2oc(/C=C/N(C)C)c([N+](=O)[O-])c2c1 | > 80 µM (inactive) |
| CN1C2=CC=CC=CC2=[N+](C)C12C=CC(=[N+]([O-])[O-])C=C2[N+](=O)[O-] (configuration not stated) | > 80 µM (inactive) |
| Cc1cc(N(CCO)CCO)ccc1N=Nc1cc(F)ccc1F | > 80 µM (inactive) |
| CC1=NN(c2ccccc2)C(=O)/C1=C/C=C/c1ccc(N(C)C)cc1 | > 80 µM (inactive) |
| Cc1ccc(S(=O)(=O)/N=C2\C=C(NS(=O)(=O)c3ccccc3)C(=O)c3ccccc32)c(C)c1 | > 80 µM (inactive) |
| CCOc1ccc2nc(N=Nc3c(O)[nH]c(=S)[nH]c3=O)sc2c1 | 38.1 µM (inactive) |
| O=S(=O)(O)c1cc(Cl)cc(N=Nc2ccc(O)cc2O)c1O | 1.42 µM |
| O=C1c2cccc(NCCCNCCO)c2C(=O)c2cccc(NCCCNCCO)c21 | > 80 µM (inactive) |
| Cc1ccccc1C1=C/C(=C(\SS/C(C(=O)c2ccc(OCC(=O)O)c(Cl)c2Cl)=C2\C=C(c3ccccc3C)SS2)C(=O)c2ccc(OCC(=O)O)c(Cl)c2Cl)SS1 | 51.8 µM (inactive) |
| CNc1ccc2nc3ccccc3[n+](C)c2c1 | 11.4 µM |
| CN(C)c1ccc(C=c2c3ccccc3n3c2c2c([n+]3C)CCCC2)cc1 | > 80 µM (inactive) |
| CC1=C/C(=C(/c2cc(C)c(O)c(Br)c2)c2ccccc2S(=O)(=O)O)C=C(Br)C1=O | > 80 µM (inactive) |
| COc1cc(N(C)C)ccc1C=c1c2ccccc2n2c1cc(-c1ccccc1)[n+]2C | 1.43 µM |
| CC[n+]1c(/C=C/N(C)c2ccccc2)sc2ccc(Cl)cc21 | > 80 µM (inactive) |
| CC1=NN(c2ccccc2)C(=O)C1N=Nc1ccc(N)cc1 (configuration not stated) | > 80 µM (inactive) |
| Nc1ccc(NC(=O)c2ccccc2)c2c1C(=O)c1ccccc1C2=O | > 80 µM (inactive) |
